Test results reported in patent US11873298B2, “Compounds and uses thereof” (JANSSEN PHARMACEUTICA NV, priority 2017, dated 2024).
pIC50: −log10 of the molar value. Values joined by “and” are separate entries in the source; they are usually repeats but may differ in a detail not shown here. Identical values can stand only once.

Legend:
Assay type in all cases: cell-based
SCD1 = target: T1, SCD1 (Homo sapiens, UniProt O00767); experiment: Growth inhibition of humanized yeast strain expressing SCD1 as sole desaturase; conditions: humanized yeast strain expressing SCD1
T1 construct: host or cells: S. cerevisiae ole1Δ strain (W303 pdr1Δ pdr3Δ background), plasmid pRS316 with TDH3 promoter and CYC1 terminator
T1 sequence (O00767 1-359): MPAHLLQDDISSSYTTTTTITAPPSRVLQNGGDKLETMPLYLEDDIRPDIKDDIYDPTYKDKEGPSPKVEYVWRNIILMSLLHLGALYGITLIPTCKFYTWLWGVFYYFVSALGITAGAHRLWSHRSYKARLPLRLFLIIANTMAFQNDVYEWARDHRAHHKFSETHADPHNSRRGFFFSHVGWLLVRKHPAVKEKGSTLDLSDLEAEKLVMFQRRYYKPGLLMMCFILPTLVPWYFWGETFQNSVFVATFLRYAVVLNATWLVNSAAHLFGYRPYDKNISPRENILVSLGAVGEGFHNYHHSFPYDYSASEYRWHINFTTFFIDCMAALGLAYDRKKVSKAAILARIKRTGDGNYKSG
Procedure, shortened: (§1)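 OD600 growth read-out. ole1Δ yeast, pdr1Δ pdr3Δ, with Ole1/SCD1/SCD5 on a plasmid; SX-Ura media throughout; 2× cell density 0.02 in CSM-Galactose; DMSO compound dilutions; humidified 30° C.; Ole1 stopped at 24 h, SCD1/SCD5 at 40 h.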

Ole1 = target: T2, Ole1 (Saccharomyces cerevisiae, UniProt P21147); experiment: Growth inhibition of yeast strain expressing Ole1 as sole desaturase; conditions: yeast strain expressing Ole1 as sole desaturase
T2 construct: expressed in transfected cells; host or cells: S. cerevisiae ole1Δ strain (W303 pdr1Δ pdr3Δ background), plasmid pRS316 with TDH3 promoter and CYC1 terminator
T2 sequence (P21147 1-510): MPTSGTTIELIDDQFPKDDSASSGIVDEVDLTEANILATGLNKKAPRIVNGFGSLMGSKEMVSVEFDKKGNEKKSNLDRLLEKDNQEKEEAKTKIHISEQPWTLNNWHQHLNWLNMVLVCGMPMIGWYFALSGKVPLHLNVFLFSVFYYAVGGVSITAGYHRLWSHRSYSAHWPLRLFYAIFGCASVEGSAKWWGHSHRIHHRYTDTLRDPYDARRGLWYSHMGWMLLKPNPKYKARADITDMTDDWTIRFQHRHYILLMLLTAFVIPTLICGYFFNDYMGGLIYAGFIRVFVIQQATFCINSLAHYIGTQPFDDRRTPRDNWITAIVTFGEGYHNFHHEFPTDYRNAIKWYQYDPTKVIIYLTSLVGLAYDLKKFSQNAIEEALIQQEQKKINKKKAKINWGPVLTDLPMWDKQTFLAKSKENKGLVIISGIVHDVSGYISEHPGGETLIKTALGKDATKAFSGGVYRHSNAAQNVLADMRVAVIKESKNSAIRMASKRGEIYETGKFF
Procedure, shortened: as §1

SCD5 = target: T3, SCD5 (Homo sapiens, UniProt Q86SK9); experiment: Growth inhibition of humanized yeast strain expressing SCD5 as sole desaturase; conditions: humanized yeast strain expressing SCD5
T3 construct: host or cells: S. cerevisiae ole1Δ strain (W303 pdr1Δ pdr3Δ background), plasmid pRS316 with TDH3 promoter and CYC1 terminator
T3 sequence (Q86SK9 1-330): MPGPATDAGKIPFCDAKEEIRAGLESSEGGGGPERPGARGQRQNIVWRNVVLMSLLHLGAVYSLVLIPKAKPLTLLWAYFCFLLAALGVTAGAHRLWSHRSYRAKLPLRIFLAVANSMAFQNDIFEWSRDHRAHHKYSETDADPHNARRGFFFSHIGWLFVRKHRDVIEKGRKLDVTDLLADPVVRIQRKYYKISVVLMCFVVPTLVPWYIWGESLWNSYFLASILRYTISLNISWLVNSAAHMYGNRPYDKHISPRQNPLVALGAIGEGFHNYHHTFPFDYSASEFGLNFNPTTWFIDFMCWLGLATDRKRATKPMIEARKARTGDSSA
Procedure, shortened: as §1

## O=C(C1CC(=O)N(c2cccc(Cl)c2)C1)N1CCC(c2nc(-c3cnn(C4COC4)c3)no2)CC1 (centres unmarked) [Compound 340]
SCD1
  pIC50: < 4.35
  SCD1 % Max Inhibition: 55.0%
Ole1
  pIC50: < 4.35
  OLE1 % Max Inhibition: 88.9%
SCD5
  pIC50: < 4.35
  SCD5 % Max Inhibition: 65.9%

## Cc1nn(C)c2cc(-c3nc(C4CCN(C(=O)CNC(=O)c5ccccc5)CC4)no3)ccc12 [Compound 326]
SCD1
  SCD1 % Max Inhibition: 77.1%
Ole1
  pIC50: < 4.35
  OLE1 % Max Inhibition: 7.5%
SCD5
  pIC50: < 4.35
  SCD5 % Max Inhibition: 26.5%

## Cc1nn(C)c2cc(-c3noc(N4CCN(C(=O)N5CCCCC5)CC4)n3)ccc12 [Compound 327]
SCD1
  SCD1 % Max Inhibition: 66.5%
Ole1
  pIC50: < 4.35
  OLE1 % Max Inhibition: 74.8%
SCD5
  pIC50: < 4.35
  SCD5 % Max Inhibition: 68.0%

## O=C(CN1Cc2ccccc2C1=O)N1CCC(c2nc(-c3ccc4nonc4c3)no2)CC1 [Compound 182]
SCD1
  pIC50: < 4.35
  SCD1 % Max Inhibition: 113.27%
Ole1
  pIC50: < 4.35
  OLE1 % Max Inhibition: 124.27%
SCD5
  pIC50: < 4.35
  SCD5 % Max Inhibition: 79.82%

## Cc1nn(C)c2cc(-c3noc(N4CCN(C(=O)c5cc(F)ccc5Cl)CC4)n3)ccc12 [Compound 278]
SCD1
  SCD1 % Max Inhibition: 32.22%
Ole1
  pIC50: < 4.35
  OLE1 % Max Inhibition: 21.08%
SCD5
  pIC50: < 4.35
  SCD5 % Max Inhibition: 10.55%

## Cc1nn(C)c2cc(-c3noc(C4CCN(C(=O)C5CN(C(=O)c6ccccc6)C5)CC4)n3)ccc12 [Compound 236]
SCD1
  pIC50: < 4.35
  SCD1 % Max Inhibition: 77.23%
Ole1
  pIC50: < 4.35
  OLE1 % Max Inhibition: 8.46%
SCD5
  pIC50: < 4.35
  SCD5 % Max Inhibition: 3.14%

## COc1cc(OC)cc(-c2noc(C3CCN(C(=O)CNC(=O)c4ccccc4)CC3)n2)c1 [Compound 187]
SCD1
  pIC50: < 4.35
  SCD1 % Max Inhibition: 72.13%
Ole1
  pIC50: < 4.35
  OLE1 % Max Inhibition: 97.42%
SCD5
  pIC50: < 4.35
  SCD5 % Max Inhibition: 2.91%

## CC(C)n1cc2cc(-c3noc(C4CCN(C(=O)CNC(=O)c5ccccc5)CC4)n3)ccc2n1 [Compound 229]
SCD1
  pIC50: < 4.35
  SCD1 % Max Inhibition: 66.51%
Ole1
  pIC50: < 4.35
  OLE1 % Max Inhibition: 89.56%
SCD5
  pIC50: < 4.35
  SCD5 % Max Inhibition: 71.18%

## Cc1nn(C)c2cc(-c3noc(C4CCN(C(=O)NC(C)(C)C)CC4)n3)ccc12 [Compound 282]
SCD1
  SCD1 % Max Inhibition: 90.54%
Ole1
  pIC50: < 4.35
  OLE1 % Max Inhibition: 110.18%
SCD5
  pIC50: 4.54
  SCD5 % Max Inhibition: 56.23%

## N#Cc1cccc(N2CC(C(=O)N3CCC(c4nc(N5CC6(COC6)C5)no4)CC3)CC2=O)c1 (centres unmarked) [Compound 332]
SCD1
  pIC50: < 4.35
  SCD1 % Max Inhibition: 59.7%
Ole1
  pIC50: < 4.35
  OLE1 % Max Inhibition: 77.0%
SCD5
  pIC50: < 4.35
  SCD5 % Max Inhibition: 31.5%

## Cc1nn(C)c2cc(-c3noc(C4CCN(C(=O)Oc5ccccc5)CC4)n3)ccc12 [Compound 272]
SCD1
  SCD1 % Max Inhibition: 70.8%
Ole1
  pIC50: < 4.35
  OLE1 % Max Inhibition: 40.3%
SCD5
  pIC50: < 4.35
  SCD5 % Max Inhibition: 51.9%

## Cc1nn(C)c2cc(-c3noc(C4CCN(C(=O)CC5CC5)CC4)n3)ccc12 [Compound 264]
SCD1
  pIC50: 4.39
  SCD1 % Max Inhibition: 56.37%
Ole1
  pIC50: < 4.35
  OLE1 % Max Inhibition: 15.52%
SCD5
  pIC50: < 4.35
  SCD5 % Max Inhibition: 7.97%

## Cc1nn(C(C)C)c2cc(-c3noc(C4CCN(C(=O)CNC(=O)c5ccccc5)CC4)n3)ccc12 [Compound 281]
SCD1
  pIC50: ≤ 4.35
  SCD1 % Max Inhibition: 84.97% and 68.90%
Ole1
  pIC50: 4.47 and < 4.35
  OLE1 % Max Inhibition: 60.23% and 32.09%
SCD5
  pIC50: < 4.35
  SCD5 % Max Inhibition: 18.03% and 12.39%

## CCOc1ccc(-c2noc(C3CCN(C(=O)CN4Cc5cc(F)ccc5C4=O)CC3)n2)cc1OC [Compound 176]
SCD1
  pIC50: < 4.35
  SCD1 % Max Inhibition: 107.22%
Ole1
  pIC50: < 4.35
  OLE1 % Max Inhibition: 3.62%
SCD5
  pIC50: < 4.35
  SCD5 % Max Inhibition: 83.50%

## CCN1C(=O)CC(C)c2ccc(-c3noc(C4CCN(C(=O)CNC(=O)c5ccccc5)CC4)n3)cc21 (centres unmarked) [Compound 298]
SCD1
  pIC50: < 4.35
  SCD1 % Max Inhibition: 92.3%
Ole1
  pIC50: < 4.35
  OLE1 % Max Inhibition: 6.6%
SCD5
  pIC50: < 4.35
  SCD5 % Max Inhibition: 21.3%

## CCn1nc2cc(-c3noc(C4CCN(C(=O)CNC(=O)c5ccccc5)CC4)n3)ccc2c1C [Compound 320]
SCD1
  SCD1 % Max Inhibition: 74.7%
Ole1
  pIC50: < 4.35
  OLE1 % Max Inhibition: 28.5%
SCD5
  pIC50: < 4.35
  SCD5 % Max Inhibition: 76.0%

## O=C(NCC(=O)N1CCC(c2nc(-c3ccc4nonc4c3)no2)CC1)c1ccccc1 [Compound 163]
SCD1
  pIC50: 4.44
  SCD1 % Max Inhibition: 55.99%
Ole1
  pIC50: < 4.35
  OLE1 % Max Inhibition: 71.84%
SCD5
  pIC50: < 4.35
  SCD5 % Max Inhibition: 24.77%

## Cc1nn(C)c2cc(-c3noc(C4CCN(C(=O)C5CC(=O)N(c6ccc(F)cn6)C5)CC4)n3)ccc12 (centres unmarked) [Compound 275]
SCD1
  pIC50: < 4.35
  SCD1 % Max Inhibition: 76.51%
Ole1
  pIC50: < 4.35
  OLE1 % Max Inhibition: 11.24%
SCD5
  pIC50: < 4.35
  SCD5 % Max Inhibition: 78.05%

## CNC(=O)c1ccc(-c2noc(C3CCN(C(=O)[C@H]4CC(=O)N(c5ccccc5)C4)CC3)n2)cn1 [Compound 252]
SCD1
  SCD1 % Max Inhibition: 80.73%
Ole1
  pIC50: < 4.35
  OLE1 % Max Inhibition: 27.85%
SCD5
  pIC50: < 4.35
  SCD5 % Max Inhibition: 39.69%

## Cc1nn(C)c2cc(-c3noc(C4CCN(C(=O)CNC(=O)c5ccccc5)C4)n3)ccc12 (centres unmarked) [Compound 209]
SCD1
  pIC50: < 4.35
  SCD1 % Max Inhibition: 101.51%
Ole1
  pIC50: < 4.35
  OLE1 % Max Inhibition: 3.74%
SCD5
  pIC50: < 4.35
  SCD5 % Max Inhibition: 78.88%

## CC(C)(CO)n1cc2ccc(-c3noc(C4CCN(C(=O)C5CC(=O)N(c6ccccc6)C5)CC4)n3)cc2n1 (centres unmarked) [Compound 201]
SCD1
  pIC50: < 4.35
  SCD1 % Max Inhibition: 79.67%
Ole1
  pIC50: < 4.35
  OLE1 % Max Inhibition: 85.29%
SCD5
  pIC50: 4.48
  SCD5 % Max Inhibition: 65.14%
